{"source": "PubChem BioAssay AID1745844", "about": "(Carcinogenic Potency Database (CPDB), 2022)", "system": "rodent lifetime carcinogenesis bioassay, tumor incidence TD50", "assay": "chronic cancer bioassays in animals – CPDB, compiled studies (AID 1745844)", "note": "Activity calls are given as the source filed them. How the calls were made is not given here."}
{"smiles": "Oc1ccccc1", "values": [{"measurement": "carcinogen call", "setting": "mouse, strain B6C3F1, females, in drinking water, site: any site (literature study), lesion: several types, types named in the paper, dosed 103 weeks, study length 104 weeks", "value": "negative (inactive)"}, {"measurement": "TD50", "setting": "mouse, strain B6C3F1, females, in drinking water, site: lung, lesion: alveolar/bronchiolar adenoma + alveolar/bronchiolar carcinoma, dosed 103 weeks, study length 104 weeks", "value": 18500, "unit": "mg/kg/day"}, {"measurement": "carcinogen call", "setting": "mouse, strain B6C3F1, males, in drinking water, site: any site (literature study), lesion: several types, types named in the paper, dosed 103 weeks, study length 104 weeks", "value": "negative (inactive)"}, {"measurement": "TD50", "setting": "mouse, strain B6C3F1, males, in drinking water, site: liver, lesion: hepatocellular adenoma + hepatocellular carcinoma + neoplastic nodule, dosed 103 weeks, study length 104 weeks", "value": 2450, "unit": "mg/kg/day"}, {"measurement": "TD50", "setting": "mouse, strain B6C3F1, males, in drinking water, site: lung, lesion: alveolar/bronchiolar adenoma + alveolar/bronchiolar carcinoma, dosed 103 weeks, study length 104 weeks", "value": 8290, "unit": "mg/kg/day"}, {"measurement": "carcinogen call", "setting": "rat, strain Fischer 344, females, in drinking water, site: any site (literature study), lesion: several types, types named in the paper, dosed 103 weeks, study length 104 weeks", "value": "negative (inactive)"}, {"measurement": "TD50", "setting": "rat, strain Fischer 344, males, in drinking water, site: all sites, lesion: leukemia + lymphoma, dosed 103 weeks, study length 104 weeks", "value": 133, "unit": "mg/kg/day"}, {"measurement": "TD50", "setting": "rat, strain Fischer 344, males, in drinking water, site: all sites, lesion: leukemia, dosed 103 weeks, study length 104 weeks", "value": 143, "unit": "mg/kg/day"}, {"measurement": "TD50", "setting": "rat, strain Fischer 344, males, in drinking water, site: all sites, lesion: monocytic leukemia, dosed 103 weeks, study length 104 weeks", "value": 143, "unit": "mg/kg/day"}, {"measurement": "TD50", "setting": "rat, strain Fischer 344, males, in drinking water, site: thyroid gland, lesion: c-cell carcinoma, dosed 103 weeks, study length 104 weeks", "value": "420 mg/kg/day (inactive)"}]}
{"smiles": "Oc1ccc(Cl)cc1Cl", "values": [{"measurement": "carcinogen call", "setting": "mouse, strain B6C3F1, females, in feed, site: any site (literature study), lesion: several types, types named in the paper, dosed 103 weeks, study length 104 weeks", "value": "negative (inactive)"}, {"measurement": "TD50", "setting": "mouse, strain B6C3F1, males, in feed, site: forestomach, lesion: squamous-cell carcinoma + squamous-cell papilloma, dosed 103 weeks, study length 104 weeks", "value": "12400 mg/kg/day (inactive)"}, {"measurement": "TD50", "setting": "mouse, strain B6C3F1, males, in feed, site: liver, lesion: hepatocellular adenoma + hepatocellular carcinoma + neoplastic nodule, dosed 103 weeks, study length 104 weeks", "value": 458000, "unit": "mg/kg/day"}, {"measurement": "TD50", "setting": "mouse, strain B6C3F1, males, in feed, site: lung, lesion: alveolar/bronchiolar adenoma + alveolar/bronchiolar carcinoma, dosed 103 weeks, study length 104 weeks", "value": 13300, "unit": "mg/kg/day"}, {"measurement": "carcinogen call", "setting": "rat, strain Fischer 344, females, in feed, site: any site (literature study), lesion: several types, types named in the paper, dosed 103 weeks, study length 104 weeks", "value": "negative (inactive)"}, {"measurement": "carcinogen call", "setting": "rat, strain Fischer 344, males, in feed, site: any site (literature study), lesion: several types, types named in the paper, dosed 103 weeks, study length 104 weeks", "value": "negative (inactive)"}]}
{"smiles": "Brc1cc(Br)c(-c2c(Br)c(Br)c(Br)c(Br)c2Br)c(Br)c1Br", "values": [{"measurement": "TD50", "setting": "mouse, strain B6C3F1, females, in feed, site: any site (literature study), lesion: several types, types named in the paper, dosed 78 weeks, study length 78 weeks", "value": 4.9, "unit": "mg/kg/day"}, {"measurement": "TD50", "setting": "mouse, strain B6C3F1, females, in feed, site: liver, lesion: hepatocellular carcinoma, dosed 78 weeks, study length 78 weeks", "value": 13.7, "unit": "mg/kg/day"}, {"measurement": "TD50", "setting": "mouse, strain B6C3F1, females, in feed, site: liver, lesion: neoplastic nodule, dosed 78 weeks, study length 78 weeks", "value": 4.89, "unit": "mg/kg/day"}, {"measurement": "TD50", "setting": "mouse, strain B6C3F1, males, in feed, site: any site (literature study), lesion: several types, types named in the paper, dosed 78 weeks, study length 78 weeks", "value": 2.07, "unit": "mg/kg/day"}, {"measurement": "TD50", "setting": "mouse, strain B6C3F1, males, in feed, site: liver, lesion: hepatoblastoma, dosed 78 weeks, study length 78 weeks", "value": 35.4, "unit": "mg/kg/day"}, {"measurement": "TD50", "setting": "mouse, strain B6C3F1, males, in feed, site: liver, lesion: hepatocellular carcinoma, dosed 78 weeks, study length 78 weeks", "value": 3.44, "unit": "mg/kg/day"}, {"measurement": "TD50", "setting": "mouse, strain B6C3F1, males, in feed, site: liver, lesion: neoplastic nodule, dosed 78 weeks, study length 78 weeks", "value": 2.86, "unit": "mg/kg/day"}]}
{"smiles": "C[C@H](CCc1ccccc1)NC[C@H](O)c1ccc(O)c(C(N)=O)c1", "values": [{"measurement": "carcinogen call", "setting": "rat, strain Sprague-Dawley, females, in feed, site: heart, lesion: endocardial sarcoma, dosed 104 weeks, study length 104 weeks", "value": "negative (inactive)"}, {"measurement": "carcinogen call", "setting": "rat, strain Sprague-Dawley, males, in feed, site: heart, lesion: endocardial sarcoma, dosed 104 weeks, study length 104 weeks", "value": "negative (inactive)"}]}
{"smiles": "COC(=O)[C@H]1[C@H]2C[C@@H]3c4[nH]c5ccccc5c4CCN3C[C@H]2C[C@@H](OC(=O)c2cc(OC)c(OC)c(OC)c2)[C@@H]1OC", "values": [{"measurement": "TD50", "setting": "rat, strain Wistar, both sexes, in feed, site: several sites, sites named in the paper, lesion: several types, types named in the paper, dosed 78 weeks, study length 78 weeks", "value": "1.28 mg/kg/day (inactive)"}]}
{"smiles": "O=NN1CCC1", "values": [{"measurement": "TD50", "setting": "hamster, strain Syrian Golden, males, by gavage, site: any site (literature study), lesion: several types, types named in the paper, dosed 50 weeks, study length 85 weeks", "value": 8.83, "unit": "mg/kg/day"}, {"measurement": "TD50", "setting": "hamster, strain Syrian Golden, males, by gavage, site: liver, lesion: hepatocellular adenoma, dosed 50 weeks, study length 85 weeks", "value": 10.7, "unit": "mg/kg/day"}, {"measurement": "TD50", "setting": "hamster, strain Syrian Golden, males, by gavage, site: liver, lesion: several types, types named in the paper, dosed 50 weeks, study length 85 weeks", "value": 7.14, "unit": "mg/kg/day"}]}
